According to US20190321334A1, “COMPOSITIONS AND METHODS FOR THE TREATMENT OF PRESBYOPIA” (priority 2018, published 2019):

Experiments:
[1] = system: presbyopic subjects; experiment: Near vision acuity after topical instillation (near test card at 16 inches; Reading vs. Baseline at 40 cm; onset, duration, Efficacy Index); assay type: in vivo, human
Source text: (§1) Subject is an emmetrope over the age of 45 with a baseline near vision of 20.100 and baseline distance vision of 20.20. Topical administration to the eye of 1% w/v pilocarpine in saline solution results in an improvement of near vision to 20.40 (8a), however this improvement comes at the expense of a reduction in distance vision to 20.100 (8b). […] A proper drug carrier can also have a beneficial effect.
(§2) 1.75% w/v aceclidine was formulated in 0.9% w/v saline with 0.02% w/v BAK. Drops were instilled binocularly into a subject. Near vision testing was performed at 16 inches on a Precision Vision 16″ near test card. All near vision testing was binocular.
(§3) As aceclidine is an […], the clinical effectiveness may vary with different ratios. For the present studies a nearly exact 50:50 ratio of stereoisomers was measured as best determined by polarimetry.
In brief, the score is calculated by multiplying the lines of improvement in near visual acuity by the number of hours the improvement lasts. For example a score of: 5 is equal to +1 lines of improvement in near visual acuity for 5 hours; 10 is equal to +1.5 lines of improvement for 6.7 hours; 15 is equal to 2 lines of improvement for 7.5 hours; 20 is equal to 2.5 lines of improvement for 8 hours; 25 is equal to 3+ lines of improvement for 8.3 hours and 35 is equal to 3.75+ lines of improvement for 9 hours.
2 subjects instilled 2 drops each of the above formulation in each eye about 5 minutes apart.

[2] = system: presbyopic subjects; experiment: Distance vision acuity after topical instillation; assay type: in vivo, human; settings: baseline distance 20.20
Source text: as §1, §2, §3

[3] = 1% w/v pilocarpine or 1.55% w/v aceclidine in saline solution, emmetrope over 45, baseline near 20.100
[4] = 1% w/v pilocarpine or 1.55% w/v aceclidine in saline solution

SMILES	near vision (FIG. 1) [1, 3]	time period of near vision improvement (FIG. 1) ([1]; 1.55% w/v aceclidine in saline solution) [h]	near vision improvement ([1]; 1.75% aceclidine, 2.5% mannitol, 0.01% tropicamide, 5% polysorbate 80)	near vision (FIG. 1) ([1]; aceclidine in carrier with 0.042% w/v tropicamide)	near vision (FIG. 1) ([1]; aceclidine in carrier: 5.5% HPβCD, 0.75% CMC, 0.25% NaCl, 0.01% BAK)	distance vision (FIG. 1) [2, 4]	near vision (FIG. 1) ([1]; 1% w/v pilocarpine with addition of 0.015% w/v tropicamide, baseline near 20.100)	distance vision (FIG. 1) ([2]; 1% w/v pilocarpine with addition of 0.015% w/v tropicamide)
CC(=O)OC1CN2CCC1CC2 (racemic) [Aceclidine, aceclidine]	20.40	6	up to 3 lines of vision acuity	20.15	< 20.20	without any effect on the baseline distance vision	–	–
CC[C@@H]1C(=O)OC[C@@H]1Cc1cncn1C [pilocarpine]	20.40	–	–	–	–	20.100	20.25	20.55
